According to PubChem BioAssay AID1963424 (Molecular Pharmacology Branch, DTP, NCI, 2024):
Where “and” joins values, the source holds several entries; their conditions need not be identical. Equal values may be shown once.

Tested on: 327498-153-R-J2-PDC complex spheroid growth, % test/control
Test: Anticancer human tumor 327498-153-R-J2-PDC patient-derived uterine carcinosarcoma cell line growth inhibition [Asc]
Details: for viability, T/C: stronger effect = lower value
How it was run: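 Complex spheroids combining tumor cells with HUVEC endothelial cells and human MSCs, at 37 degrees C, 5% CO2; agents tested alone or combined, half-log dilutions from at or near clinical Cmax, or 10 microM if Cmax unknown.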

[1] = curve of first compound, second compound 0.03 µM
[2] = curve of first compound, second compound 0.0949 µM
[3] = curve of first compound, second compound 0.3 µM
[4] = curve of first compound, second compound 0.949 µM
[5] = curve of first compound, second compound 3 µM
[6] = second compound 0.03 µM, first compound 0.0316 µM
[7] = second compound 0.03 µM, first compound 0.1 µM
[8] = second compound 0.03 µM, first compound 0.316 µM
[9] = second compound 0.03 µM, first compound 1 µM
[10] = second compound 0.03 µM, first compound 3.16 µM
[11] = second compound 0.03 µM, first compound 10 µM
[12] = second compound 0.0949 µM, first compound 0.0316 µM
[13] = second compound 0.0949 µM, first compound 0.1 µM
[14] = second compound 0.0949 µM, first compound 0.316 µM
[15] = second compound 0.0949 µM, first compound 1 µM
[16] = second compound 0.0949 µM, first compound 3.16 µM
[17] = second compound 0.0949 µM, first compound 10 µM
[18] = second compound 0.3 µM, first compound 0.0316 µM
[19] = second compound 0.3 µM, first compound 0.1 µM
[20] = second compound 0.3 µM, first compound 0.316 µM
[21] = second compound 0.3 µM, first compound 1 µM
[22] = second compound 0.3 µM, first compound 3.16 µM
[23] = second compound 0.3 µM, first compound 10 µM
[24] = second compound 0.949 µM, first compound 0.0316 µM
[25] = second compound 0.949 µM, first compound 0.1 µM
[26] = second compound 0.949 µM, first compound 0.316 µM
[27] = second compound 0.949 µM, first compound 1 µM
[28] = second compound 0.949 µM, first compound 3.16 µM
[29] = second compound 0.949 µM, first compound 10 µM
[30] = second compound 3 µM, first compound 0.0316 µM
[31] = second compound 3 µM, first compound 0.1 µM
[32] = second compound 3 µM, first compound 0.316 µM
[33] = second compound 3 µM, first compound 1 µM
[34] = second compound 3 µM, first compound 3.16 µM
[35] = second compound 3 µM, first compound 10 µM
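Further: spheroids exposed to compound for 7 days after 3 days of growth.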
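Wherever viability, T/C is given: 100% = DMSO vehicle control wells.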

## Cn1ncnc1[C@H]1c2n[nH]c(=O)c3cc(F)cc(c23)N[C@@H]1c1ccc(F)cc1 + CNC(C)C(=O)NC1CN(S(=O)(=O)c2cccc(S(=O)(=O)N3CCC4CCC(C(=O)NC(c5ccccc5)c5ccccc5)N4C(=O)C(NC(=O)C(C)NC)C3)c2)CCC2CCC(C(=O)NC(c3ccccc3)c3ccccc3)N2C1=O
Curve of first compound, second compound 0.01 µM
  IC50: 16.2 nM
Curve of first compound, second compound 0.0316 µM
  IC50: 17 nM
Curve of first compound, second compound 0.1 µM
  IC50: 17.7 nM
Curve of first compound, second compound 0.316 µM
  IC50: 14.7 nM
Curve of first compound, second compound 1 µM
  IC50: 16.6 nM
Second compound 0.01 µM, first compound 0.000316 µM
  viability, T/C: 98.5%
Second compound 0.01 µM, first compound 0.001 µM
  viability, T/C: 109%
Second compound 0.01 µM, first compound 0.00316 µM
  viability, T/C: 101%
Second compound 0.01 µM, first compound 0.01 µM
  viability, T/C: 68%
Second compound 0.01 µM, first compound 0.0316 µM
  viability, T/C: 24.8%
Second compound 0.01 µM, first compound 0.1 µM
  viability, T/C: 8.36%
Second compound 0.0316 µM, first compound 0.000316 µM
  viability, T/C: 98.9%
Second compound 0.0316 µM, first compound 0.001 µM
  viability, T/C: 111%
Second compound 0.0316 µM, first compound 0.00316 µM
  viability, T/C: 98.2%
Second compound 0.0316 µM, first compound 0.01 µM
  viability, T/C: 73.8%
Second compound 0.0316 µM, first compound 0.0316 µM
  viability, T/C: 22.6%
Second compound 0.0316 µM, first compound 0.1 µM
  viability, T/C: 8.68%
Second compound 0.1 µM, first compound 0.000316 µM
  viability, T/C: 98.2%
Second compound 0.1 µM, first compound 0.001 µM
  viability, T/C: 106%
Second compound 0.1 µM, first compound 0.00316 µM
  viability, T/C: 91.2%
Second compound 0.1 µM, first compound 0.01 µM
  viability, T/C: 73.3%
Second compound 0.1 µM, first compound 0.0316 µM
  viability, T/C: 27.1%
Second compound 0.1 µM, first compound 0.1 µM
  viability, T/C: 7.43%
Second compound 0.316 µM, first compound 0.000316 µM
  viability, T/C: 100%
Second compound 0.316 µM, first compound 0.001 µM
  viability, T/C: 112%
Second compound 0.316 µM, first compound 0.00316 µM
  viability, T/C: 111%
Second compound 0.316 µM, first compound 0.01 µM
  viability, T/C: 64.7%
Second compound 0.316 µM, first compound 0.0316 µM
  viability, T/C: 21.5%
Second compound 0.316 µM, first compound 0.1 µM
  viability, T/C: 8%
Second compound 1 µM, first compound 0.000316 µM
  viability, T/C: 99.3%
Second compound 1 µM, first compound 0.001 µM
  viability, T/C: 105%
Second compound 1 µM, first compound 0.00316 µM
  viability, T/C: 107%
Second compound 1 µM, first compound 0.01 µM
  viability, T/C: 68.9%
Second compound 1 µM, first compound 0.0316 µM
  viability, T/C: 25.3%
Second compound 1 µM, first compound 0.1 µM
  viability, T/C: 8.08%

## CNC(C)C(=O)NC1CN(S(=O)(=O)c2cccc(S(=O)(=O)N3CCC4CCC(C(=O)NC(c5ccccc5)c5ccccc5)N4C(=O)C(NC(=O)C(C)NC)C3)c2)CCC2CCC(C(=O)NC(c3ccccc3)c3ccccc3)N2C1=O (stereo not given)
Compound 0.00316 µM
  viability, T/C: 95.8% and 104%
Compound 0.01 µM
  viability, T/C: 96.8% [middle of 15 runs]
Compound 0.0316 µM
  viability, T/C: 98.1% [middle of 15 runs]
Compound 0.1 µM
  viability, T/C: 99.2% [middle of 15 runs]
Compound 0.316 µM
  viability, T/C: 99.9% [middle of 15 runs]
Compound 1 µM
  viability, T/C: 96.2% [middle of 15 runs]
Compound alone, run of 10/03/2022
  IC50: > 1000 nM
Curve of compound
  IC50: > 1000 nM

## C=C(F)C(=O)N1CCN(c2nc(OCC3CCCN3C)nc3c2CCN(c2cccc4cccc(Cl)c24)C3)CC1CC#N (stereo not given) + CCN1C(C(=O)NC23CCC(C(=O)O)(CC2)CC3)C(c2cccc(Cl)c2F)C2(C(=O)Nc3cc(Cl)ccc32)C12CCCCC2
[1]
  IC50: 552 nM
[2]
  IC50: < 31.6 nM
[3]
  IC50: < 31.6 nM
[4]
  IC50: < 31.6 nM
[5]
  IC50: < 31.6 nM
[6]
  viability, T/C: 56.4%
[7]
  viability, T/C: 55.3%
[8]
  viability, T/C: 59.8%
[9]
  viability, T/C: 42.5%
[10]
  viability, T/C: 6.79%
[11]
  viability, T/C: 0.13%
[12]
  viability, T/C: 49.1%
[13]
  viability, T/C: 38.6%
[14]
  viability, T/C: 38.5%
[15]
  viability, T/C: 25.4%
[16]
  viability, T/C: 0.52%
[17]
  viability, T/C: 0.11%
[18]
  viability, T/C: 23.3%
[19]
  viability, T/C: 18.5%
[20]
  viability, T/C: 12.5%
[21]
  viability, T/C: 10.9%
[22]
  viability, T/C: 0.07%
[23]
  viability, T/C: 0.11%
[24]
  viability, T/C: 6.62%
[25]
  viability, T/C: 5.04%
[26]
  viability, T/C: 5.41%
[27]
  viability, T/C: 1.84%
[28]
  viability, T/C: 0.03%
[29]
  viability, T/C: 0.12%
[30]
  viability, T/C: 1.83%
[31]
  viability, T/C: 2.77%
[32]
  viability, T/C: 1.2%
[33]
  viability, T/C: 0.65%
[34]
  viability, T/C: 0.14%
[35]
  viability, T/C: 1.2%

## O=C(c1ccc(F)c(F)c1Nc1ccc(I)cc1F)N1CC(O)([C@@H]2CCCCN2)C1
Compound 0.00316 µM
  viability, T/C: 96.9% and 101% and 95.2%
Compound 0.01 µM
  viability, T/C: 96.2% and 95.5% and 92.5%
Compound 0.0316 µM
  viability, T/C: 88.3% and 78.5% and 90.8%
Compound 0.1 µM
  viability, T/C: 81% and 66.6% and 80.8%
Compound 0.316 µM
  viability, T/C: 60.5% and 59.8% and 60.2%
Compound 1 µM
  viability, T/C: 27.1% and 21.9% and 27.9%
Curve of compound
  IC50: 456 nM and 339 nM and 455 nM

## C#Cc1c(F)ccc2cc(O)cc(-c3ncc4c(N5CC6CCC(C5)N6)nc(OCC56CCCN5CC(F)C6)nc4c3F)c12 (stereo not given) + CCN1C(C(=O)NC23CCC(C(=O)O)(CC2)CC3)C(c2cccc(Cl)c2F)C2(C(=O)Nc3cc(Cl)ccc32)C12CCCCC2
[1]
  IC50: 2930 nM
[2]
  IC50: 709 nM
[3]
  IC50: < 31.6 nM
[4]
  IC50: < 31.6 nM
[5]
  IC50: < 31.6 nM
[6]
  viability, T/C: 87.3%
[7]
  viability, T/C: 94.4%
[8]
  viability, T/C: 83.2%
[9]
  viability, T/C: 61.2%
[10]
  viability, T/C: 54%
[11]
  viability, T/C: 39.4%
[12]
  viability, T/C: 77.4%
[13]
  viability, T/C: 74.7%
[14]
  viability, T/C: 61.6%
[15]
  viability, T/C: 43%
[16]
  viability, T/C: 37%
[17]
  viability, T/C: 26.8%
[18]
  viability, T/C: 33.5%
[19]
  viability, T/C: 36.1%
[20]
  viability, T/C: 24.3%
[21]
  viability, T/C: 15.7%
[22]
  viability, T/C: 14.4%
[23]
  viability, T/C: 7.22%
[24]
  viability, T/C: 10.2%
[25]
  viability, T/C: 9.47%
[26]
  viability, T/C: 4.8%
[27]
  viability, T/C: 4.74%
[28]
  viability, T/C: 4.43%
[29]
  viability, T/C: 1.84%
[30]
  viability, T/C: 2.16%
[31]
  viability, T/C: 1.97%
[32]
  viability, T/C: 2.08%
[33]
  viability, T/C: 1.55%
[34]
  viability, T/C: 1.14%
[35]
  viability, T/C: 0.73%
